Assay results: article PMC5217682, “Galactomannan Catabolism Conferred by a Polysaccharide Utilization Locus of Bacteroides ovatus” (The Journal of Biological Chemistry, 2016)

Target: T1, BoMan26B (Bacteroides ovatus, UniProt A0ABU3IS29)
T1 construct: gene RO706_12620; residues 1-19 (lipoprotein signal) deleted; His tag kept; expressed in E. coli BL21(DE3); 347 residues, 39,870 Da with tag
T1 sequence (A0ABU3IS29 20-360): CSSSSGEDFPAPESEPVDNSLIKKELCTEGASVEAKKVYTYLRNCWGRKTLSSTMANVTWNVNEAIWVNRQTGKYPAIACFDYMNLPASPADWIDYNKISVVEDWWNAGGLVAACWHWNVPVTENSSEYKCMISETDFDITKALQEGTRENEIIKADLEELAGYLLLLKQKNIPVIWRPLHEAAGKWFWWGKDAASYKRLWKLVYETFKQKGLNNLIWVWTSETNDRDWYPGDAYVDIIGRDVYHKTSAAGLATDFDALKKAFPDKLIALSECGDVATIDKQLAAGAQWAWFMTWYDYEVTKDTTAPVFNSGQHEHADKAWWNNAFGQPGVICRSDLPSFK
Assay: hydrolysis by HPAEC-PAD
Type: biochemical
Conditions: […] substrate, […] potassium phosphate pH […] °C

With `OC[C@H]1O[C@@H](O[C@H]2[C@H](O)[C@H](O)[C@H](O[C@H]3[C@H](O)[C@H](O)[C@H](O[C@H]4[C@H](O)[C@H](O)[C@H](O[C@H]5[C@H](O)[C@H](O)C(O)O[C@@H]5CO)O[C@@H]4CO)O[C@@H]3CO)O[C@@H]2CO)[C@@H](O)[C@@H](O)[C@@H]1O` (stereo partly shown) [M5, mannopentaose] the “hydrolysis by HPAEC-PAD” value was “it hydrolyzed all tested manno oligo- and polysaccharides (M3–M6”.
